Key:
U2OS cells = experiment: MTT cytotoxicity assay, U2OS; type: cell-based, human; settings: 72 hour treatment
Procedure: (§1) Human cervical cancer HeLa, human osteosarcoma U2OS, human prostate PC3 cell lines were procured from the ATCC. A549 lung carcinoma cells were obtained from Prof. David E. Root, Whitehead Institute for Biomedical Research. HeLa, U2OS, and A549 Cells were grown at 37° C. in 5% CO2 in DMEM medium supplemented with 10% fetal bovine serum and 1% penicillin/streptomycin. PC3 cells were grown at 37° C. in 5% CO2 in RPMI supplemented with 10% fetal bovine serum and 1% penicillin/streptomycin. Cells were passed every 3 to 4 days and restarted from frozen stocks upon reaching pass number 20.
(§2) In order to investigate the efficacy of Pt-DNA-Au NPs, their ability to kill cancer cells of various origin was measured. […] Cells were seeded on a 96 well plate in 100 μL media and incubated for 24 hours. The cells were then treated with Pt-DNA-Au NP, 1, or cisplatin, separately at varying concentrations and incubated for 72 hours at 37° C. Medium was removed, cells were washed with PBS and then incubated with cell culture medium containing 20% 3-(4,5-dimethylthiazol-2-yl)-2,5-diphenyltetrazolium bromide (MTT). […] Cells were further incubated overnight and the absorbance was measured at 620 nm using a BioTek Synergy HT multi-detection microplate plate reader. […]

PC3 cells = experiment: MTT cytotoxicity assay, PC3
Procedure: as §1, §2

[1] = Cyclic voltammetry, reduction potential of the Pt(IV) complex; type: physicochemical; settings: Ag/AgCl reference, 25° C.
Procedure: The conjugate was designed to release a cytotoxic dose of cisplatin upon intracellular reduction. An ideal Pt(IV) complex should be sufficiently stable to travel through the blood stream until it reaches a tumor cell without decomposition. Once inside the cell, however, it should have an appropriate reduction potential such that it will be reduced and release its cytotoxic payload. Electrochemical measurements were made at 25° C. on a EG&G PAR Model 263 Potentiostat/Galvanostat with electrochemical analysis software 270 and a three electrode set-up comprising a glassy carbon working electrode, platinum wire auxiliary electrode and a Ag/AgCl reference electrode. The electrochemical data were uncorrected for junction potentials. KCl was used as a supporting electrolyte.

A549 cells = test system: A549 cells
Procedure: as §1, §2

## N.N.[Cl][Pt][Cl] [cisplatin, cis-diamminedichloroplatinum(II), reference compound]
U2OS cells
  IC50: 5.1 µM
PC3 cells; PC3 cells, 72 hour treatment, MTT
  IC50: 4.6 µM

## [NH2][Pt]([NH2])([OH])([Cl])([Cl])[O]C(=O)CCC(=O)O [Compound 1, c,c,t-[Pt(NH3)2Cl2(OH)(O2CCH2CH2CO2H)]]
[1]; pH 6.0, phosphate buffer-0.1 M KCl
  reduction potential: −0.42 V
[1]; pH 7.4, phosphate buffer-0.1 M KCl, extrapolated to 0.0 mV s-1 scan rate
  reduction potential: −0.49 V
A549 cells
  cytotoxicity (in words): did not show any significant killing
PC3 cells
  cytotoxicity (in words): did not show any significant killing
